# Experimental data as given in PMC9758846, “Dinuclear and mononuclear metal(II) polypyridyl complexes against drug-sensitive and drug-resistant Plasmodium falciparum and their mode of action” (Malaria Journal, 2022).
# “And” between values parts separate entries of the source, which are not always exact repeats. Equal values may be shown once. Read-outs that look alike come from different tables or passages of the source.
# Key:
# [1] = PNDA assay of •OH radicals from reaction with H2O2; conditions: for Generation of ·OH radicals (in words): equimolar test compound with excess H2O2; for Concentration of •OH radical: 30 µM compound with excess H2O2
# Description: A previously reported spectrometric assay using PNDA was used to quantify the amount of reactive oxygen species (ROS), viz. •OH radicals, produced by the reaction of metal(II) complexes with hydrogen peroxide in borate buffer at pH 7.5 [24–26]. The percentage of PNDA bleaching and the concentration of •OH produced were determined.
# [2] = system: B+ blood red blood cells (RBC); assay: In vitro haemolytic assay; assay type: cell-based, human; conditions: up to 25 µM; 72 h
# Description: Fresh B+ blood was washed with RPMI1640 medium containing of 30 µg/mL gentamicin (Gibco) and centrifuged at 1000 xg for 10 min three times. The percentage of haemolysis was determined spectroscopically using 5% haematocrit containing test compound at increasing concentration and incubated for 72 h at 37 °C [19, 20]. Untreated blood acted as negative control while blood treated with sterile distilled water acted as positive control (for 100% haemolysis).
# [3] = molecular target: Pf5202 20S proteasome chymotrypsin-like (CT-L) site (Plasmodium falciparum, UniProt Q8IJT1); assay: 20S proteasome inhibition assay using parasite lysate; assay type: biochemical; conditions: Suc-LLVY-AMC, 30 min
# Description: (§1) To harvest P. falciparum parasites, intraerythrocytic Pf3D7 and Pf5202 were collected in trophozoite and early schizont stages. Red blood cells were lysed in 0.15% (w/v) saponin lysis buffer for 10 min at 37 °C. After lysis, the parasite pellet was washed once with PBS buffer by centrifuging at 1600 rpm for 5 min. Saponin lysis buffer was added once again to remove all the red blood cells for 10 min at 37 °C, followed by washing with PBS twice and immediately used or kept at − 80 °C. To prepare parasite lysates for proteasome purification, parasite pellet was resuspended with 100 µl of pre-cooled Pierce™ RIPA buffer. A mild protein extraction method was used to prepare parasite extracts. The resuspended parasites were passed 20 times through a needle with a diameter of 0.4 mm in a syringe on ice to lyse the parasite. After 15 min centrifugation at 13,000 xg at 4 °C, the supernatant was removed. Protein concentration was determined by the Bradford assay. The activities of 3 proteolytic sites were determined by fluorescence assay using fluorogenic peptide substrates (Suc-LLVY-AMC for chymotrypsin-like, Boc-LRR-AMC for trypsin-like and Suc-LLE-AMC for caspase-like) Proteasome activities were determined by monitoring the substrate hydrolysis for 30 min at 37 °C with 340 nm excitation and 465 nm emission wavelength. Activity of each proteolytic site were calculated, and the IC50 values were determined from the non-linear regression analysis. VR23 proteasome inhibitor was used as positive control.
# [4] = molecular target: Pf3D7 20S proteasome caspase-like (C-L) site (Plasmodium falciparum, UniProt Q8I0U7); assay: as above; assay type: biochemical; conditions: Suc-LLE-AMC, 30 min
# Description: as §1
# [5] = molecular target: Pf5202 20S proteasome trypsin-like (T-L) site (Plasmodium falciparum, UniProt Q8I6T3); assay: as above; assay type: biochemical; conditions: for IC50: parasite lysate, Boc-LRR-AMC, 30 min
# Description: as §1
# [6] = molecular target: Pf3D7 20S proteasome chymotrypsin-like (CT-L) site (Plasmodium falciparum, UniProt Q8IJT1); assay: as above; assay type: biochemical; conditions: Suc-LLVY-AMC, 30 min
# Description: as §1
# [7] = molecular target: Pf5202 20S proteasome caspase-like (C-L) site (Plasmodium falciparum, UniProt Q8I0U7); assay: as above; assay type: biochemical; conditions: Suc-LLE-AMC, 30 min
# Description: as §1
# [8] = molecular target: Pf3D7 20S proteasome trypsin-like (T-L) site (Plasmodium falciparum, UniProt Q8I6T3); assay: as above; assay type: biochemical; conditions: Boc-LRR-AMC, 30 min
# Description: as §1
# [9] = system: Pf3D7; assay: Intracellular ROS level using DCFH-DA; assay type: cell-based, Plasmodium falciparum
# Description: (§2) After incubation, packed cells were washed with phosphate buffer saline (PBS) solution. […] The data was expressed as fold change between amount of ROS produced by treated P. falciparum against untreated P. falciparum. Normalization was done with the percentage of parasite viability obtained at each condition. Hydrogen peroxide was used as positive control.
# [10] = system: Pf5202; assay: Intracellular ROS level using DCFH-DA; assay type: cell-based, Plasmodium falciparum
# Description: as §2
# [11] = system: Plasmodium falciparum IPC5202 (Pf5202); assay: In vitro anti-malarial activity using SYBR Green I nucleic acid dye; assay type: cell-based; conditions: for IC50: 72 h incubation, read-out: IC50 of Pf5202
# Description: (§3) The drug-sensitive strain of P. falciparum 3D7 (Pf3D7) was obtained from the Department of Science, Monash University, Malaysia and cultured as previously described. The artemisinin-resistant strain of P. falciparum IPC5202 (Pf5202) was obtained from BEI Resources and cultured as mentioned in the product sheet. Both strains were maintained in sealed flask at 37 °C in a humidified atmosphere of 5% O2, 5% CO2 and 90% N2. All buffer stock solutions for biological assays were autoclaved at 121 °C for 15 min.
# (§4) Previously reported anti-malarial assay was used with slight modification using 1% parasitaemia (ring-stage) and 5% haematocrit treated with test compounds at increasing concentration and incubated for 72 h at 37 °C [21–23]. After the incubation, the assay was terminated by freeze/thaw cycle (− 80 °C overnight before thawing for 2 h) before the addition of lysis buffer containing SYBR Green I dye into each well and mixed thoroughly using the belly dancer for 30 min in the dark. Chloroquine diphosphate salt and artemisinin were used as standard drugs. The fluorescence signal was quantified at 485 nm excitation wavelength and 528 nm emission wavelength. IC50 values of each test compound was determined from a dose response curve by non-linear regression analysis.
# [12] = system: Plasmodium falciparum 3D7 (Pf3D7); assay: as above; assay type: cell-based; conditions: 72 h incubation, read-out: IC50 of Pf3D7
# Description: as §3, §4
# [13] = positive control, 24 h, 1000 µM
# [14] = positive control, 48 h, 1000 µM
# [15] = positive control, 72 h, 1000 µM
# Chain of Pf5202 20S proteasome trypsin-like (T-L) site (Q8I6T3 entry or part of it): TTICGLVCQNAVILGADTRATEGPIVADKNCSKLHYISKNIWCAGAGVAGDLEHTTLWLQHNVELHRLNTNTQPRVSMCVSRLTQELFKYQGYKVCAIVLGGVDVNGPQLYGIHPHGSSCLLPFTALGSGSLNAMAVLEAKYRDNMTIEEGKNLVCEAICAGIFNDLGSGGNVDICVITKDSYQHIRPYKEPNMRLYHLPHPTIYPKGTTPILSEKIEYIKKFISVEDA
# Chain of Pf3D7 20S proteasome trypsin-like (T-L) site (Q8I6T3 entry or part of it): as above
# Chain of Pf3D7 20S proteasome caspase-like (C-L) site (Q8I6T3 entry or part of it): as above
# Chain of Pf3D7 20S proteasome caspase-like (C-L) site (Q8I0U7 entry or part of it): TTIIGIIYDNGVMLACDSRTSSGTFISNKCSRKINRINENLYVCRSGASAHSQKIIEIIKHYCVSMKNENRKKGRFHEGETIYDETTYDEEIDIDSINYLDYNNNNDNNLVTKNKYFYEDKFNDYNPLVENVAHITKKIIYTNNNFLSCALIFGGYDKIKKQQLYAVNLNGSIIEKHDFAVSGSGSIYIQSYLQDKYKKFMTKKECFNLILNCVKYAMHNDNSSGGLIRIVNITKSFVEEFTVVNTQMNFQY
# Chain of Pf5202 20S proteasome caspase-like (C-L) site (Q8I0U7 entry or part of it): as above
# Chain of Pf5202 20S proteasome caspase-like (C-L) site (Q8I6T3 entry or part of it, further chain): as the sequence (Q8I6T3 entry or part of it) above
# Chain of Pf3D7 20S proteasome chymotrypsin-like (CT-L) site (Q8IJT1 entry or part of it): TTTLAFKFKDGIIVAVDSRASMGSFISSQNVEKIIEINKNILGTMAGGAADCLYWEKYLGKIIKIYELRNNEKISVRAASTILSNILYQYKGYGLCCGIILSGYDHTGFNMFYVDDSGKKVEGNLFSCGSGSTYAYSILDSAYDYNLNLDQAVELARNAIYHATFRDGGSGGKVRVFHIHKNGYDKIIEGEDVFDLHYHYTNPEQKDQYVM
# Chain of Pf5202 20S proteasome chymotrypsin-like (CT-L) site (Q8IJT1 entry or part of it): as above
compound,measurement,setting,value
"[Zn(phen)(NO3)-4,4′-bipy-Zn(phen)(NO3)](NO3)2·2H2O [Complex 4]",Generation of ·OH radicals (in words),[1],did not generate any ·OH radicals
same,Haemolysis on B+ blood (in words),[2],no haemolysis
same,IC50,[3],> 25 µM
same,IC50,[4],> 25 µM
same,IC50,[5],> 25 µM
same,IC50,[6],> 25 µM
same,IC50,[7],> 25 µM
same,IC50,[8],> 25 µM
same,fold change in ROS,"[9]; 24 h, 25.0 µM",0.31 ± 0.31 fold
same,fold change in ROS,"[9]; 48 h, 0.2 µM",0.52 ± 0.26 fold
same,fold change in ROS,"[9]; 48 h, 1.0 µM",0.77 ± 0.58 fold
same,fold change in ROS,"[9]; 48 h, 5.0 µM",0.85 ± 0.40 fold
same,fold change in ROS,"[9]; 48 h, 25.0 µM",0.42 ± 0.19 fold
same,fold change in ROS,"[9]; 72 h, 0.2 µM",1.52 ± 0.07 fold
same,fold change in ROS,"[9]; 72 h, 1.0 µM",1.52 ± 0.14 fold
same,fold change in ROS,"[9]; 72 h, 5.0 µM",1.85 ± 0.27 fold
same,fold change in ROS,"[9]; 72 h, 25.0 µM",1.19 ± 0.57 fold
same,fold change in ROS,"[10]; 24 h, 1.0 µM",0.44 ± 0.25 fold
same,fold change in ROS,"[10]; 48 h, 5.0 µM",0.43 ± 0.09 fold
same,fold change in ROS,"[10]; 48 h, 25.0 µM",0.39 ± 0.36 fold
same,fold change in ROS,"[10]; 72 h, 1.0 µM",0.45 ± 0.32 fold
same,fold change in ROS,"[10]; 72 h, 5.0 µM",0.33 ± 0.01 fold
same,fold change in ROS,"[10]; 72 h, 25.0 µM",0.13 ± 0.05 fold
same,IC50,[11],> 100 µM
same,IC50,[12],3.9 µM and 3.93 µM
"C[C@@H]1CC[C@H]2[C@@H](C)C(=O)O[C@@H]3O[C@@]4(C)CC[C@@H]1[C@]32OO4 [ART, Artemisinin]",IC50,[11]; Plasmodium falciparum,> 100 µM
same,Drop in efficacy/potency towards Pf5202 relative to Pf3D7,[11]; ratio of IC50 values,more than 3000 ×
same,IC50,"[12]; Plasmodium falciparum, 3D7",0.04 ± 0.01 µM
"c1cnc2c(c1)ccc1cccnc12 [phen, 1,10-phenanthroline, reference compound]",Concentration of •OH radical,[1]; 24 h,0.15 ± 0.07 µM
same,Concentration of •OH radical,[1]; 48 h,0.36 ± 0.17 µM
same,Concentration of •OH radical,[1]; 72 h,0.30 ± 0.23 µM
same,Generation of ·OH radicals (in words),[1],did not generate any ·OH radicals
same,IC50,[4],> 25 µM
same,IC50,[5],1.79 ± 0.66 µM
same,Factor by which T-L site of Pf5202 is inhibited better than that of Pf3D7,[5]; ratio of T-L IC50 values,about 2.5 ×
same,IC50,[8],4.47 ± 0.6 µM
same,fold change in ROS,"[9]; 48 h, 0.2 µM",3.10 ± 0.98 fold
same,fold change in ROS,"[9]; 48 h, 1.0 µM",2.91 ± 0.05 fold
same,fold change in ROS,"[9]; 48 h, 5.0 µM",4.47 ± 0.71 fold
same,fold change in ROS,"[9]; 48 h, 25.0 µM",6.09 ± 0.91 fold
same,fold change in ROS,"[10]; 24 h, 0.2 µM",1.06 ± 0.06 fold
same,fold change in ROS,"[10]; 24 h, 1.0 µM",1.08 ± 0.09 fold
same,fold change in ROS,"[10]; 24 h, 5.0 µM",0.91 ± 0.05 fold
same,fold change in ROS,"[10]; 24 h, 25.0 µM",0.80 ± 0.04 fold
same,fold change in ROS,"[10]; 48 h, 0.2 µM",1.78 ± 0.78 fold
same,fold change in ROS,"[10]; 48 h, 1.0 µM",1.31 ± 0.21 fold
same,fold change in ROS,"[10]; 48 h, 5.0 µM",1.40 ± 0.13 fold
same,fold change in ROS,"[10]; 48 h, 25.0 µM",1.32 ± 0.31 fold
same,fold change in ROS,"[10]; 72 h, 0.2 µM",1.35 ± 0.71 fold
same,fold change in ROS,"[10]; 72 h, 1.0 µM",1.17 ± 0.44 fold
same,fold change in ROS,"[10]; 72 h, 5.0 µM",1.08 ± 0.51 fold
same,fold change in ROS,"[10]; 72 h, 25.0 µM",1.21 ± 1.25 fold
same,IC50,[11]; Plasmodium falciparum,> 100 µM
same,IC50,"[12]; Plasmodium falciparum, 3D7",4.27 ± 0.05 µM
"OO [Complex H2O2, Hydrogen peroxide, reference compound]",fold change in ROS,"[9]; positive control, 24 h, 8 µM",0.90 ± 0.37 fold
same,fold change in ROS,"[9]; positive control, 24 h, 40 µM",1.34 ± 0.67 fold
same,fold change in ROS,"[9]; positive control, 24 h, 200 µM",1.28 ± 0.62 fold
same,fold change in ROS,[9]; [13],1.77 ± 0.85 fold
same,fold change in ROS,"[9]; positive control, 48 h, 8 µM",2.97 ± 0.57 fold
same,fold change in ROS,"[9]; positive control, 48 h, 40 µM",3.55 ± 0.9 fold
same,fold change in ROS,"[9]; positive control, 48 h, 200 µM",4.61 ± 0.15 fold
same,fold change in ROS,[9]; [14],5.75 ± 0.76 fold
same,fold change in ROS,"[9]; positive control, 72 h, 8 µM",0.25 ± 0.08 fold
same,fold change in ROS,"[9]; positive control, 72 h, 40 µM",0.34 ± 0.12 fold
same,fold change in ROS,"[9]; positive control, 72 h, 200 µM",0.49 ± 0.22 fold
same,fold change in ROS,[9]; [15],1.00 ± 0.06 fold
same,fold change in ROS,"[10]; positive control, 24 h, 8 µM",1.10 ± 0.04 fold
same,fold change in ROS,"[10]; positive control, 24 h, 40 µM",1.16 ± 0.13 fold
same,fold change in ROS,"[10]; positive control, 24 h, 200 µM",1.08 ± 0.18 fold
same,fold change in ROS,[10]; [13],1.15 ± 0.22 fold
same,fold change in ROS,"[10]; positive control, 48 h, 8 µM",1.78 ± 0.16 fold
same,fold change in ROS,"[10]; positive control, 48 h, 40 µM",1.54 ± 0.28 fold
same,fold change in ROS,"[10]; positive control, 48 h, 200 µM",1.41 ± 0.16 fold
same,fold change in ROS,[10]; [14],1.68 ± 0.28 fold
same,fold change in ROS,"[10]; positive control, 72 h, 8 µM",1.82 ± 0.15 fold
same,fold change in ROS,"[10]; positive control, 72 h, 40 µM",1.17 ± 0.36 fold
same,fold change in ROS,"[10]; positive control, 72 h, 200 µM",2.06 ± 0.25 fold
same,fold change in ROS,[10]; [15],3.71 ± 0.14 fold
